Test results from ChEMBL document CHEMBL4118139, “Novel naphthyloxy derivatives - Potent histamine H3 receptor ligands. Synthesis and pharmacological evaluation” (Bioorg Med Chem, 2018).
Active and inactive are the calls of the source. No cut-off for these calls is given here.

Assays:
Rattus norvegicus [1] = test: In vivo antagonist activity at H3 receptor in RAMH-induced dipsogenic ip dosed Wistar (Krf:(WI) WU) rat model assessed as inhibition of RAMH-water intake administered 30 mins prior to RAMH induction; type: functional
Salmonella typhimurium = test: Mutagenicity in Salmonella typhimurium TA100 assessed as increase in number of revertants at 10 uM after 90 mins by Ames test; type: toxicity, organism-based; conditions: salmonella enterica subsp. enterica serovar typhimurium, 1.5 h
[2] = Therapeutic index, ratio of ip dosed albino CF-1 mouse TD50 to ip dosed albino CF-1 mouse ED50 for 32 mA current-induced 6 Hz psychomotor test; type: toxicity, organism-based; conditions: in vivo, read-out: TI
Rattus norvegicus [3] = test: Anticonvulsant activity in Sprague-Dawley rat assessed as protection against maximal electroshock-induced seizures at 30 mg/kg, po after 0.5 hrs; type: functional, organism-based
Rattus norvegicus [4] = test: Anticonvulsant activity in ip dosed Sprague-Dawley rat assessed as protection against maximal electroshock-induced seizures after 0.25 hrs; type: functional
[5] = target: 5-hydroxytryptamine receptor 6 (Homo sapiens, UniProt P50406); test: Displacement of [3H]-LSD from human 5-HT6 receptor expressed in HEK293 cell membranes after 1 hr
Chain of 5-hydroxytryptamine receptor 6 (P50406 whole entry): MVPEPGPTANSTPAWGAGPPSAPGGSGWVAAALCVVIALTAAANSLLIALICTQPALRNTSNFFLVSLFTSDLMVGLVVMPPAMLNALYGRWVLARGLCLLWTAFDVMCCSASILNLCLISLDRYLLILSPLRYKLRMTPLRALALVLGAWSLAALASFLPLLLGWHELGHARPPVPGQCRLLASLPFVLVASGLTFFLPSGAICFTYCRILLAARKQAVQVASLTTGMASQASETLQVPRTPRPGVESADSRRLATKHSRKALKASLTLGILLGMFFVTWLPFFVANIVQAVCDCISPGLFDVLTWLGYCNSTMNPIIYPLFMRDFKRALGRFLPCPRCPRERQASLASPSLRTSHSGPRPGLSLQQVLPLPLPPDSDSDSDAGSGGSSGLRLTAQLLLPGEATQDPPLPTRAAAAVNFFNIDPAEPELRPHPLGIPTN

Mus musculus [6] = test: Neurotoxicity in albino CF-1 mouse assessed as increase in subcutaneous pentylenetetrazole-induced continuous seizures at 50 mg/kg, ip measured after 1 hr; type: toxicity, organism-based; conditions: in vivo
Rattus norvegicus [7] = test: Anticonvulsant activity in Sprague-Dawley rat assessed as protection against maximal electroshock-induced seizures at 30 mg/kg, ip after 2 hrs; type: functional, organism-based
[8] = target: D(2) dopamine receptor (Homo sapiens) (UniProt P14416); test: Displacement of [3H]-spiperone from human dopamine D2 receptor expressed in CHO cell membranes at 1 uM relative to haloperidol
Chain of D(2) dopamine receptor (Homo sapiens) (P14416 whole entry): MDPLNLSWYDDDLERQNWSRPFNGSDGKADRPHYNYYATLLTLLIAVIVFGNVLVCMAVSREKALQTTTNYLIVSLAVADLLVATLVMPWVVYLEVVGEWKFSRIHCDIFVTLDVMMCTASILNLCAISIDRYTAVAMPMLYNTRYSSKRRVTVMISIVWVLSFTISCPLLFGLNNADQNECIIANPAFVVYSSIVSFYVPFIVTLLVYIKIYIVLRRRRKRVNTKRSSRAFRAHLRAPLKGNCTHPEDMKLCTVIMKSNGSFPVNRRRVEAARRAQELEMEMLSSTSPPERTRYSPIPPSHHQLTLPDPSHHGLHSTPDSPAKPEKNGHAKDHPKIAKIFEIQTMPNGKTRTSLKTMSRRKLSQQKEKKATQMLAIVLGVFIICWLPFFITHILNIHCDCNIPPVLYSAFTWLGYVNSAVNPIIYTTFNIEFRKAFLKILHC

[9] = target: 5-hydroxytryptamine receptor 7 (Homo sapiens, UniProt P34969); test: Displacement of [3H]-5-carboxyamidotryptamine from human 5-HT7 receptor expressed in HEK293 cell membranes after 1 hr
Chain of 5-hydroxytryptamine receptor 7 (P34969 whole entry): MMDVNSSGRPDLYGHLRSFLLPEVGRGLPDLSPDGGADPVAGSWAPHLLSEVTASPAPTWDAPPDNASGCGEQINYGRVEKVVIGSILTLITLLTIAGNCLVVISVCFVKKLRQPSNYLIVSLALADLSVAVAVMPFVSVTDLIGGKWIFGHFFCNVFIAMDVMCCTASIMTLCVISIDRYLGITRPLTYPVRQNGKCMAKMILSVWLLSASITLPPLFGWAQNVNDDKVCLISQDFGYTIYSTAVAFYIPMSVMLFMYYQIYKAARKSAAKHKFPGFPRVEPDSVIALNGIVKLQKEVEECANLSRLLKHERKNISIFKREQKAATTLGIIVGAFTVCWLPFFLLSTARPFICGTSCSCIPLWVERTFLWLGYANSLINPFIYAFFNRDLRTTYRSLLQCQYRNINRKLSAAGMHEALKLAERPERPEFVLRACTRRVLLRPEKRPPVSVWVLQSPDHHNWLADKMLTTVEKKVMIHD

Mus musculus [10] = test: Analgesic activity in ip dosed albino Swiss CD1 mouse assessed reduction in formalin-induced inflammatory pain by measuring reduction in time spent in licking pretreated prior to formalin injection measured at 15 to 30 mins post formalin injection; type: functional
Mus musculus [11] = test: Anticonvulsant activity in ip dosed albino CF-1 mouse assessed as protection against subcutaneous pentylenetetrazole-induced seizures measured after 1 hr; type: functional; conditions: CF-1, 1 h
Mus musculus [12] = test: Neurotoxicity in albino CF-1 mouse assessed as increase in subcutaneous pentylenetetrazole-induced continuous seizures at 50 mg/kg, ip measured after 0.25 hrs; type: toxicity, organism-based; conditions: in vivo
Rattus norvegicus [13] = test: Anticonvulsant activity in Sprague-Dawley rat assessed as protection against maximal electroshock-induced seizures at 30 mg/kg, po after 2 hrs; type: functional, organism-based
Mus musculus [14] = test: Induction of sedative effect in albino Swiss CD-1 mouse at 15 mg/kg, ip; type: organism-based; conditions: in vivo
Rattus norvegicus [15] = test: Anticonvulsant activity in Sprague-Dawley rat assessed as protection against maximal electroshock-induced seizures at 30 mg/kg, po after 0.25 hrs; type: functional, organism-based
[16] = target: D(3) dopamine receptor (Homo sapiens) (UniProt P35462); test: Displacement of [3H]-spiperone from human dopamine D3 receptor expressed in CHO cell membranes at 1 uM relative to haloperidol
Chain of D(3) dopamine receptor (Homo sapiens) (P35462 whole entry): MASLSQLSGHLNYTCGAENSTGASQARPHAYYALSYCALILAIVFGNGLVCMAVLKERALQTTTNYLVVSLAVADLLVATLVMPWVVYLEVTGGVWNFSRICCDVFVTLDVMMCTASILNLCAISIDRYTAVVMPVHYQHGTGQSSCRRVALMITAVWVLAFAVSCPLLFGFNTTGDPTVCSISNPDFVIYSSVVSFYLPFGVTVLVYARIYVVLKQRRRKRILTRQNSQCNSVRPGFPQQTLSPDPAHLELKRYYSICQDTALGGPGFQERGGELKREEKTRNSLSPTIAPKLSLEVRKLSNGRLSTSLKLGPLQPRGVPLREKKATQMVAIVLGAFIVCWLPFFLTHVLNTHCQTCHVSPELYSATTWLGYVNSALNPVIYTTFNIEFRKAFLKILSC

[17] = target: Histamine H1 receptor (Cavia porcellus) (UniProt P31389); test: Agonist activity at histamine H1 receptor in guinea-pig ileum assessed as induction of contractions at 1 to 3 uM after 15 mins; type: functional
Chain of Histamine H1 receptor (Cavia porcellus) (P31389 whole entry): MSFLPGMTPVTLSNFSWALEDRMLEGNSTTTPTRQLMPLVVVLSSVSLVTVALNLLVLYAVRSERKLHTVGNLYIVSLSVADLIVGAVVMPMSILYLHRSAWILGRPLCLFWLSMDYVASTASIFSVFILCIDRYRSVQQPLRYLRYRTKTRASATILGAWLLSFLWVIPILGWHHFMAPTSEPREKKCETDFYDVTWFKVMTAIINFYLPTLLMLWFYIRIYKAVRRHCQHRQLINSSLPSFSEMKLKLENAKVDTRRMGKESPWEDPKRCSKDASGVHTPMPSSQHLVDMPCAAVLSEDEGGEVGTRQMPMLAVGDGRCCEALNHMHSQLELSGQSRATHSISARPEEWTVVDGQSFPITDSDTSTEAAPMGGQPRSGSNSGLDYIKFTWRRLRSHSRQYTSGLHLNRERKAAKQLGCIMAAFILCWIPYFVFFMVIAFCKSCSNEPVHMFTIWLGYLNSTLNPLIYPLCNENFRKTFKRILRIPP

Mus musculus [18] = test: Neurotoxicity in albino CF-1 mouse at 30 mg/kg, ip after 1 hr by rotarod test; type: toxicity, organism-based; conditions: in vivo
Mus musculus [19] = test: Anticonvulsant activity in albino CF-1 mouse assessed as protection against maximal electroshock-induced seizures at 50 mg/kg, ip after 0.25 hrs; type: functional, organism-based
Mus musculus [20] = test: Neurotoxicity in albino CF-1 mouse at 65 mg/kg after 1 hr by rotarod test; type: toxicity, organism-based; conditions: in vivo
Rattus norvegicus [21] = test: Anticonvulsant activity in po Sprague-Dawley rat assessed as protection against subcutaneous pentylenetetrazole-induced seizures measured after 1 hr; type: functional
Mus musculus [22] = test: Analgesic activity in ip dosed albino Swiss CD1 mouse assessed reduction in formalin-induced inflammatory pain by measuring reduction in time spent in licking treated prior to formalin injection measured at 0 to 5 mins post formalin injection; type: functional
Rattus norvegicus [23] = test: Anticonvulsant activity in Sprague-Dawley rat assessed as protection against maximal electroshock-induced seizures at 30 mg/kg, ip after 1 hr; type: functional, organism-based
Mus musculus [24] = test: Anticonvulsant activity in albino CF-1 mouse assessed as protection against subcutaneous pentylenetetrazole-induced seizures at 50 mg/kg, ip measured after 4 hrs; type: functional, organism-based
Mus musculus [25] = test: Anticonvulsant activity in albino CF-1 mouse assessed as protection against 44 mA current-induced seizure at 50 mg/kg, ip after 0.25 hrs by 6 Hz psychomotor test; type: functional, organism-based
Mus musculus [26] = test: Anticonvulsant activity in ip dosed albino CF-1 mouse assessed as protection against 44 mA current-induced seizure after 0.25 hrs by 6 Hz psychomotor test; type: functional; conditions: CF-1, ip
Mus musculus [27] = test: Neurotoxicity in albino CF-1 mouse at 50 mg/kg, ip after 0.5 hrs by rotarod test; type: toxicity, organism-based; conditions: in vivo
Mus musculus [28] = test: Neurotoxicity in albino CF-1 mouse at 50 mg/kg after 1 hr by rotarod test; type: toxicity, organism-based; conditions: in vivo
Mus musculus [29] = test: Neurotoxicity in albino CF-1 mouse at 65 mg/kg after 2 hrs by rotarod test; type: toxicity, organism-based; conditions: in vivo
[30] = target: 5-hydroxytryptamine receptor 2A (Homo sapiens, UniProt P28223); test: Displacement of [3H]-ketanserin from human 5-HT2A receptor expressed in CHO cell membranes after 1 hr
Chain of 5-hydroxytryptamine receptor 2A (P28223 whole entry): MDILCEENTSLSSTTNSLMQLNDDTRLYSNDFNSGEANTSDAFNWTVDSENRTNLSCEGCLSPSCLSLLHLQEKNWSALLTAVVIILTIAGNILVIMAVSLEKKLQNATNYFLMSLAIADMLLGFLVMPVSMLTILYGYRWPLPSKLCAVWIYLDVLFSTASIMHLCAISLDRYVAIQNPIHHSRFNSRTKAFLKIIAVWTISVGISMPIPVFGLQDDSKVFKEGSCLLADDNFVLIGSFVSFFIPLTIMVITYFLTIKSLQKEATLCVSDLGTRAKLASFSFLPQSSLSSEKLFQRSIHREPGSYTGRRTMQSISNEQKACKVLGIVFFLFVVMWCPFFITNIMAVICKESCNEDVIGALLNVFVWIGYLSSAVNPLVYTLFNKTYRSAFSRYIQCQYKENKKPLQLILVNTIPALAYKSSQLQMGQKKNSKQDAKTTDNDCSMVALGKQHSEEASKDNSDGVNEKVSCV

Rattus norvegicus [31] = test: Anticonvulsant activity in po dosed Sprague-Dawley rat assessed as protection against maximal electroshock-induced seizures after 1 hr; type: functional
[32] = Neurotoxicity in ip dosed albino CF-1 mouse after 0.25 hrs by rotarod test; type: toxicity, organism-based; conditions: in vivo
CYP3A4 = CYP3A4 (Homo sapiens, UniProt P08684); test: Inhibition of CYP3A4 (unknown origin) at 25 uM by CYP3A4 P450-Glo assay; type: ADME
Chain of CYP3A4 (P08684 whole entry): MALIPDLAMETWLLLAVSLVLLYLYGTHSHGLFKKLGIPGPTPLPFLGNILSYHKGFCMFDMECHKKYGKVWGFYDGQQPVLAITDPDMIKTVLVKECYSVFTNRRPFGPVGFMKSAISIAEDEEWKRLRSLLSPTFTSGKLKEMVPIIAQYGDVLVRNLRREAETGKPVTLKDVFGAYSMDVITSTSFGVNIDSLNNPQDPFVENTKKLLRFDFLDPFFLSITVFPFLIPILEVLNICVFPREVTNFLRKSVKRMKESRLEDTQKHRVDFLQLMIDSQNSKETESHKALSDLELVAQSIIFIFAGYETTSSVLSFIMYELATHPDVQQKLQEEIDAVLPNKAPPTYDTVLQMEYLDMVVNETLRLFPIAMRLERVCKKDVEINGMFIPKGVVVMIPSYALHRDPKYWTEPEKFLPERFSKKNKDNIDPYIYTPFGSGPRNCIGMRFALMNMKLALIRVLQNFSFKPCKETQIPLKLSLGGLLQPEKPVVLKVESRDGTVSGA

Mus musculus [33] = test: Anticonvulsant activity in ip dosed albino CF-1 mouse assessed as protection against 32 mA current-induced seizure after 1 hr by 6 Hz psychomotor test; type: functional; conditions: CF-1, ip
Mus musculus [34] = test: Anticonvulsant activity in albino CF-1 mouse assessed as protection against maximal electroshock-induced seizures at 50 mg/kg, ip after 0.5 hrs; type: functional, organism-based
Rattus norvegicus [35] = test: Anticonvulsant activity in Sprague-Dawley rat assessed as protection against maximal electroshock-induced seizures at 65 mg/kg, po after 0.25 hrs; type: functional, organism-based
Rattus norvegicus [36] = test: Anticonvulsant activity in Sprague-Dawley rat assessed as protection against maximal electroshock-induced seizures at 30 mg/kg, po after 4 hrs; type: functional, organism-based
Mus musculus [37] = test: Neurotoxicity in albino CF-1 mouse at 50 mg/kg, ip after 2 hrs by rotarod test; type: toxicity, organism-based; conditions: in vivo
Mus musculus [38] = test: Neurotoxicity in albino CF-1 mouse at 65 mg/kg after 0.5 hrs by rotarod test; type: toxicity, organism-based; conditions: in vivo
Mus musculus [39] = test: Neurotoxicity in albino CF-1 mouse at 50 mg/kg after 2 hrs by rotarod test; type: toxicity, organism-based; conditions: in vivo
Mus musculus [40] = test: Anticonvulsant activity in albino CF-1 mouse assessed as protection against 44 mA current-induced seizure at 50 mg/kg, ip after 4 hrs by 6 Hz psychomotor test; type: functional, organism-based

c1ccc2c(OCCCCCN3CCCCC3)cccc2c1
ED50 (Rattus norvegicus [1]): 2.37 mg/kg | Activity (Salmonella typhimurium): Non-Toxic | selectivity ratio [2]: 2.9 | Activity (Rattus norvegicus [3]): inactive | ED50 (Rattus norvegicus [4]): 17.8 mg/kg | Ki [5]: 2540 nM | Activity (Mus musculus [6]): Non-Toxic | Activity (Rattus norvegicus [7]): Active | inhibition [8]: 2% | Ki [9]: 2310 nM | ED50 (Mus musculus [10]): 30 mg/kg | ED50 (Mus musculus [11]): > 100 mg/kg | Activity (Mus musculus [12]): Non-Toxic | Activity (Rattus norvegicus [13]): inactive | Activity (Mus musculus [14]): Toxic | Activity (Rattus norvegicus [15]): inactive | inhibition [16]: 12% | Activity [17]: inactive | Activity (Mus musculus [18]): Non-Toxic | Activity (Mus musculus [19]): Active | Activity (Mus musculus [20]): Non-Toxic | ED50 (Rattus norvegicus [21]): > 250 mg/kg | ED50 (Mus musculus [22]): 31.1 mg/kg | Activity (Rattus norvegicus [23]): Active | Activity (Mus musculus [24]): inactive | Activity (Mus musculus [25]): inactive | ED50 (Mus musculus [26]): 57.2 mg/kg | Activity (Mus musculus [27]): Non-Toxic | Activity (Mus musculus [28]): Non-Toxic | Activity (Mus musculus [29]): Non-Toxic | Ki [30]: 3900 nM | ED50 (Rattus norvegicus [31]): 78.1 mg/kg | TD50 at 0.25 h [32]: 94.8 mg/kg | inhibition at 25 µM (CYP3A4): 50% | ED50 (Mus musculus [33]): 33.1 mg/kg | Activity (Mus musculus [34]): Active | Activity (Rattus norvegicus [35]): inactive | Activity (Rattus norvegicus [36]): inactive | Activity (Mus musculus [37]): Non-Toxic | Activity (Mus musculus [38]): Non-Toxic | Activity (Mus musculus [39]): Non-Toxic | Activity (Mus musculus [40]): inactive
